{
  "source": "patent US5972894A",
  "about": "“Peptides having potassium channel opener activity” (Cytran, Inc., priority 1997, dated 1999)",
  "test_system": "ischemic myocardium",
  "assay": "Inotropic function and arrhythmias of ischemic isolated rat heart during reperfusion",
  "conditions": "for -dp/dtmax, % of preischemic value: by the 30th minute of reperfusion",
  "excerpt": "Rat hearts were surgically isolated from white random-bred rats weighing approximately 250 g. The isolated hearts were perfused with a standard oxygenated (95% O2 and 5% CO2) Krebs-Henseleit solution in a retrograde manner (i.e., according to Langendorff and using a constant perfusate pressure of 80 cm of water). The hearts maintained a steady spontaneous contraction rate. A latex balloon catheter connected to a pressure transducer (EMT-746, Siemens-Elema, Sweden) was inserted into the left ventricle of each heart to measure the inotropic function of the heart (as described in Example 3, above). The left ventricle pressure variation curve was recorded using a polygraph.\nStage I (\"adaptation regimen\") consisted of a 30-minute adaptation of the respective rat hearts to the perfusion regimen. The baseline parameters for the inotropic function of each heart were recorded to establish the preischemic values for the following measured parameters: (i) the systolic pressure in the left ventricle (Psyst. mm Hg); (ii) the diastolic pressure in the left ventricle (Pdiast. mm Hg); (iii) the evolving pressure (Pev. =Psyst. -Pdist. mm Hg); (iv) the maximal rate of increase of left ventricle pressure (+dp/dtmax mm Hg/sec); and (v) the maximal rate of decrease of left ventricle pressure (-dp/dtmax mm Hg/sec). In addition, the heart rate (HR) of each heart was determined from the recordings made of the variations in the left ventricle pressure over time. In Stage II (\"ischemic simulation\"), ischemia was induced in each heart by shutting off the supply of the perfusion solution to the heart. Approximately 30 minutes later, Stage III (\"reperfusion regimen\") was initiated by restarting the reperfusion and including in the perfusate solution a test or control substance at one of the following respective concentrations: a perfusate solution of a test substance comprised 0.06, 0.6, or 6.0 mg/l GE, or 0.06, 0.6, or 6.0 mg/l VT, respectively; a perfusate solution of the positive control substance comprised 14 mg/l inosine. Inosine is a nucleoside preparation that produces a favorable inotropic effect on both normal and ischemic myocardium while inducing no rhythm disturbances or acceleration of ischemic contracture development. Woollard et al., Cardiovasc. Res. 15: 659-67 (1981). Inosine was obtained from Sigma Chemical Company, USA (Cat. Code I-4125; lot number 81H0227). The negative control substance comprised reperfusion using a standard oxygenated Krebs-Henseleit solution.\nFor each heart, the inotropic function of the myocardium was evaluated by measuring the parameters (i) through (v), discussed above, and the heart rate. These six parameters were recorded continuously throughout the study (i.e., beginning with Stage I and continuing through Stage III). The recordings were analyzed at the following times: (a) immediately before beginning Stage II (that is, after the 30-minute Stage I adaptation period, but before stopping perfusion); and (b) at 1, 5, 10, 20, and 30 minutes into the Stage III reperfusion.\nThe frequency and duration of rhythm disturbances in the 30-minute Stage III reperfusion period were determined by measuring the following parameters: (i) the number of ventricular extrasystoles; (ii) the overall duration of ventricular tachycardias (in seconds); and (iii) the overall duration of ventricular fibrillation (in seconds). Each dose of the test substance was tested on nine isolated hearts.",
  "key": {"[1]": {"conditions": "6.0 mg/l, 30-minute reperfusion"}},
  "note": "Residues, ends and D or L forms follow the SMILES beside them.",
  "data": [
    {"smiles": "NCC(=O)N[C@@H](CCC(=O)O)C(=O)O", "note": "[GE, L-Glycyl-L-Glutamic acid] (H-Gly-Glu-OH)", "values": [
      {"measurement": "Systolic Pressure in Ischemic Left Ventricle (% of Preischemic Values)", "setting": "0.6 mg/l, 10 min reperfusion", "result": 88.40, "unit": "%"},
      {"measurement": "Diastolic Pressure in Ischemic Left Ventricle (% of Preischemic Mean Value)", "setting": "0.6 mg/l, 20 min reperfusion", "result": 99.28, "unit": "%"},
      {"measurement": "Evolving Pressure in Ischemic Left Ventricle (% of Preischemic Mean Value)", "setting": "0.6 mg/l, 20 min reperfusion", "result": 78.42, "unit": "%"},
      {"measurement": "Heart Rate during Reperfusion (% of Preischemic Mean Value)", "setting": "0.6 mg/l, 20 min reperfusion", "result": 91.53, "unit": "%"},
      {"measurement": "Maximal Rate of Increase of Left Ventricle Pressure (% of Preischemic Mean Value)", "setting": "0.6 mg/l, 20 min reperfusion", "result": 81.12, "unit": "%"},
      {"measurement": "Maximal Rate of Left Ventricle Pressure Decrease (% of Preischemic Mean Value)", "setting": "0.6 mg/l, 20 min reperfusion", "result": 84.10, "unit": "%"},
      {"measurement": "Systolic Pressure in Ischemic Left Ventricle (% of Preischemic Values)", "setting": "0.6 mg/l, 20 min reperfusion", "result": 82.35, "unit": "%"},
      {"measurement": "Diastolic Pressure in Ischemic Left Ventricle (% of Preischemic Mean Value)", "setting": "0.6 mg/l, 30 min reperfusion", "result": 127.06, "unit": "%"},
      {"measurement": "Evolving Pressure in Ischemic Left Ventricle (% of Preischemic Mean Value)", "setting": "0.6 mg/l, 30 min reperfusion", "result": 87.22, "unit": "%"},
      {"measurement": "Heart Rate during Reperfusion (% of Preischemic Mean Value)", "setting": "0.6 mg/l, 30 min reperfusion", "result": 106.61, "unit": "%"},
      {"measurement": "Maximal Rate of Increase of Left Ventricle Pressure (% of Preischemic Mean Value)", "setting": "0.6 mg/l, 30 min reperfusion", "result": 97.62, "unit": "%"},
      {"measurement": "Maximal Rate of Left Ventricle Pressure Decrease (% of Preischemic Mean Value)", "setting": "0.6 mg/l, 30 min reperfusion", "result": 91.20, "unit": "%"},
      {"measurement": "Systolic Pressure in Ischemic Left Ventricle (% of Preischemic Values)", "setting": "0.6 mg/l, 30 min reperfusion", "result": 91.89, "unit": "%"},
      {"measurement": "restoration of +dp/dtmax", "setting": "0.6 mg/l, after 30 minutes of reperfusion", "result": "nearly to its preischemic level"},
      {"measurement": "evolving pressure, % of preischemic level", "setting": "0.6 mg/l, after about 20 or about 30 minutes of reperfusion, respectively", "result": "≥ 85", "unit": "%"},
      {"measurement": "-dp/dtmax, % of preischemic value", "setting": "0.6 mg/l", "result": "greater than 90%"},
      {"measurement": "Number of Ventricular Extrasystoles", "setting": "[1]", "result": 174.9},
      {"measurement": "Overall Duration of Ventricular Fibrillation", "setting": "[1]", "result": 79.6, "unit": "s"},
      {"measurement": "Overall Duration of Ventricular Tachycardia", "setting": "[1]", "result": 5.2, "unit": "s"},
      {"measurement": "Diastolic Pressure in Ischemic Left Ventricle (% of Preischemic Mean Value)", "setting": "6.0 mg/l, 1 min reperfusion", "result": 53.97, "unit": "%"},
      {"measurement": "Evolving Pressure in Ischemic Left Ventricle (% of Preischemic Mean Value)", "setting": "6.0 mg/l, 1 min reperfusion", "result": 78.34, "unit": "%"},
      {"measurement": "Heart Rate during Reperfusion (% of Preischemic Mean Value)", "setting": "6.0 mg/l, 1 min reperfusion", "result": 38.86, "unit": "%"},
      {"measurement": "Maximal Rate of Increase of Left Ventricle Pressure (% of Preischemic Mean Value)", "setting": "6.0 mg/l, 1 min reperfusion", "result": 71.18, "unit": "%"},
      {"measurement": "Maximal Rate of Left Ventricle Pressure Decrease (% of Preischemic Mean Value)", "setting": "6.0 mg/l, 1 min reperfusion", "result": 59.93, "unit": "%"},
      {"measurement": "Systolic Pressure in Ischemic Left Ventricle (% of Preischemic Values)", "setting": "6.0 mg/l, 1 min reperfusion", "result": 72.87, "unit": "%"},
      {"measurement": "Diastolic Pressure in Ischemic Left Ventricle (% of Preischemic Mean Value)", "setting": "6.0 mg/l, 5 min reperfusion", "result": 65.08, "unit": "%"},
      {"measurement": "Evolving Pressure in Ischemic Left Ventricle (% of Preischemic Mean Value)", "setting": "6.0 mg/l, 5 min reperfusion", "result": 68.80, "unit": "%"},
      {"measurement": "Heart Rate during Reperfusion (% of Preischemic Mean Value)", "setting": "6.0 mg/l, 5 min reperfusion", "result": 55.65, "unit": "%"},
      {"measurement": "Maximal Rate of Increase of Left Ventricle Pressure (% of Preischemic Mean Value)", "setting": "6.0 mg/l, 5 min reperfusion", "result": 68.10, "unit": "%"},
      {"measurement": "Maximal Rate of Left Ventricle Pressure Decrease (% of Preischemic Mean Value)", "setting": "6.0 mg/l, 5 min reperfusion", "result": 70.76, "unit": "%"},
      {"measurement": "Systolic Pressure in Ischemic Left Ventricle (% of Preischemic Values)", "setting": "6.0 mg/l, 5 min reperfusion", "result": 67.10, "unit": "%"},
      {"measurement": "Diastolic Pressure in Ischemic Left Ventricle (% of Preischemic Mean Value)", "setting": "6.0 mg/l, 10 min reperfusion", "result": 103.17, "unit": "%"},
      {"measurement": "Evolving Pressure in Ischemic Left Ventricle (% of Preischemic Mean Value)", "setting": "6.0 mg/l, 10 min reperfusion", "result": 74.86, "unit": "%"},
      {"measurement": "Heart Rate during Reperfusion (% of Preischemic Mean Value)", "setting": "6.0 mg/l, 10 min reperfusion", "result": 82.12, "unit": "%"},
      {"measurement": "Maximal Rate of Increase of Left Ventricle Pressure (% of Preischemic Mean Value)", "setting": "6.0 mg/l, 10 min reperfusion", "result": 77.78, "unit": "%"},
      {"measurement": "Maximal Rate of Left Ventricle Pressure Decrease (% of Preischemic Mean Value)", "setting": "6.0 mg/l, 10 min reperfusion", "result": 93.15, "unit": "%"},
      {"measurement": "Systolic Pressure in Ischemic Left Ventricle (% of Preischemic Values)", "setting": "6.0 mg/l, 10 min reperfusion", "result": 77.71, "unit": "%"},
      {"measurement": "Diastolic Pressure in Ischemic Left Ventricle (% of Preischemic Mean Value)", "setting": "6.0 mg/l, 20 min reperfusion", "result": 83.98, "unit": "%"},
      {"measurement": "Evolving Pressure in Ischemic Left Ventricle (% of Preischemic Mean Value)", "setting": "6.0 mg/l, 20 min reperfusion", "result": 78.47, "unit": "%"},
      {"measurement": "Heart Rate during Reperfusion (% of Preischemic Mean Value)", "setting": "6.0 mg/l, 20 min reperfusion", "result": 77.12, "unit": "%"},
      {"measurement": "Maximal Rate of Increase of Left Ventricle Pressure (% of Preischemic Mean Value)", "setting": "6.0 mg/l, 20 min reperfusion", "result": 82.47, "unit": "%"},
      {"measurement": "Maximal Rate of Left Ventricle Pressure Decrease (% of Preischemic Mean Value)", "setting": "6.0 mg/l, 20 min reperfusion", "result": 95.32, "unit": "%"},
      {"measurement": "Systolic Pressure in Ischemic Left Ventricle (% of Preischemic Values)", "setting": "6.0 mg/l, 20 min reperfusion", "result": 77.71, "unit": "%"},
      {"measurement": "Diastolic Pressure in Ischemic Left Ventricle (% of Preischemic Mean Value)", "setting": "6.0 mg/l, 30 min reperfusion", "result": 132.47, "unit": "%"},
      {"measurement": "Evolving Pressure in Ischemic Left Ventricle (% of Preischemic Mean Value)", "setting": "6.0 mg/l, 30 min reperfusion", "result": 73.08, "unit": "%"},
      {"measurement": "Heart Rate during Reperfusion (% of Preischemic Mean Value)", "setting": "6.0 mg/l, 30 min reperfusion", "result": 63.29, "unit": "%"},
      {"measurement": "Maximal Rate of Increase of Left Ventricle Pressure (% of Preischemic Mean Value)", "setting": "6.0 mg/l, 30 min reperfusion", "result": 74.49, "unit": "%"},
      {"measurement": "Maximal Rate of Left Ventricle Pressure Decrease (% of Preischemic Mean Value)", "setting": "6.0 mg/l, 30 min reperfusion", "result": 93.07, "unit": "%"},
      {"measurement": "Systolic Pressure in Ischemic Left Ventricle (% of Preischemic Values)", "setting": "6.0 mg/l, 30 min reperfusion", "result": 79.73, "unit": "%"},
      {"measurement": "-dp/dtmax, % of preischemic value", "setting": "6.0 mg/l", "result": "greater than 90%"},
      {"measurement": "arrhythmogenic effect during reperfusion", "setting": "0.06-6.0 mg/l", "result": "Neither GE nor VT was found to have an arrhythmogenic effect"},
      {"measurement": "effect on systolic pressure drop", "setting": "0.06 and 0.6 mg/l", "result": "prevented the dramatic drop in systolic pressure"},
      {"measurement": "chronotropic effect on heart rate", "setting": "0.06 and 6.0 mg/l", "result": "moderate negative chronotropic effect"},
      {"measurement": "effect on diastolic pressure increase", "setting": "reperfusion", "result": "prevented the increase in diastolic pressure"}
    ]}
  ]
}
